Data taken from paper PMC8119466, “A screen of FDA-approved drugs identifies inhibitors of protein tyrosine phosphatase 4A3 (PTP4A3 or PRL-3)” (Scientific Reports, 2021).
Counter-ions that a name gives are not always drawn. Like-named read-outs stand apart in the source and are kept apart here.

How the values were obtained:
[1] = target: T1, recombinant PRL-3 (Homo sapiens, UniProt O75365); test: In vitro phosphatase assay (DiFMUP hydrolysis), PRL-3; format: biochemical; conditions: for IC50: DiFMUP at KM, read-out: Calculated IC50, PRL-3 phosphatase activity; for % Phosphatase Activity (compared to DMSO) PRL-3: FDA-approved drug screen
T1 construct: 6xHis (N, cleaved yes); made in house; host or cells: E. coli One Shot BL21 Star
T1 sequence (O75365 whole entry): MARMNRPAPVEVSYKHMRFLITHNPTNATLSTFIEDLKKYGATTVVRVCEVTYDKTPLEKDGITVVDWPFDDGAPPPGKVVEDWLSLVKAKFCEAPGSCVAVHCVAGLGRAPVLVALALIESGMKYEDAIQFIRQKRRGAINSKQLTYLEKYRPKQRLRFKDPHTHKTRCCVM

[2] = target: T2, recombinant PRL-2 (Homo sapiens, UniProt Q12974); test: In vitro phosphatase assay (DiFMUP hydrolysis), PRL-2; format: biochemical; conditions: for IC50: DiFMUP at KM, read-out: Calculated IC50, PRL-2 phosphatase activity; for % Phosphatase Activity (compared to DMSO) PRL-2: FDA-approved drug screen;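 on all read-outs here: PRL-2 activity read as DiFMUP hydrolysis after 20 min at room temperature with drug, enzyme first pre-reduced at 4 °C for 20 min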
T2 construct: 6xHis (N, cleaved yes); made in house; host or cells: E. coli One Shot BL21 Star
T2 sequence (Q12974 1-167): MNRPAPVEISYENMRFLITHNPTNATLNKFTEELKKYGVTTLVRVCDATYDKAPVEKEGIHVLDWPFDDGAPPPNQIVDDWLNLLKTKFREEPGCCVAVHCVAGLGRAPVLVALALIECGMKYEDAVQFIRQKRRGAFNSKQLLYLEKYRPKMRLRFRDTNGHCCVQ

[3] = target: T3, recombinant PRL-1 (Homo sapiens, UniProt Q93096); test: In vitro phosphatase assay (DiFMUP hydrolysis), PRL-1; format: biochemical; conditions: for IC50: DiFMUP at KM, read-out: Calculated IC50, PRL-1 phosphatase activity; for % Phosphatase Activity (compared to DMSO) PRL-1: FDA-approved drug screen
T3 construct: 6xHis (N, cleaved yes); made in house; host or cells: E. coli One Shot BL21 Star
T3 sequence (Q93096 1-173): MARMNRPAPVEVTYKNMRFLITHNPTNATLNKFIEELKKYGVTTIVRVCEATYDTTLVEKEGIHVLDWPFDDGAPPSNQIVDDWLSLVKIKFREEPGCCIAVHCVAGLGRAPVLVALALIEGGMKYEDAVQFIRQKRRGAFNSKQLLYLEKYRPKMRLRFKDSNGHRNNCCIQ

[4] = system: HEK293T cells; test: Scratch (migration) assay, HEK293T transfected with PRL-3 or empty vector; format: cell-based, human; conditions: HEK293T transfected with PRL-3, 24 h, compared to DMSO
Procedure: pENTR-PRL-3 (previously described[51]) was cloned into pLKO-CMV-puro using LR clonase (Thermofisher, 11,791,019) according to manufacturer’s directions. pLKO-CMV empty vector (EV) and pLKO-CMV:PRL-3 were transfected into HEK293T using Lipofectamine 3000 (ThermoFisher, L3000015) according to manufacturer’s protocol. Transfected cells were selected with 1 µg/mL puromycin in complete media to establish the cell line, then were maintained under 0.5 µg/mL puromycin in complete media. For PRL-3 knockdown, pLKO.1-scrambled shRNA and pLKO.1-PRL-3 shRNA[51] plasmids were transfected into HCT116 cells using Lipofectamine 3000 (Thermo Fisher, Cat # L3000015) according to the manufacturer’s directions. Cells were selected for 48 h in 1 µg/mL puromycin before use in assays.
Cells were seeded into duplicate wells of a 48 well plates at a density of 2 × 10^5 cells per well for HEK293T or 4 × 10^5 for HCT116 and SW480. Cells were recovered overnight and were scratched using a p20 pipette tip the following day. Compounds were added at the concentrations indicated. Images were obtained immediately after the scratch and after a 24 h incubation with the drug on an Evos FL inverted microscope (ThermoFisher). The area within the scratch was calculated using ImageJ. The area migrated was measured as the difference in wound area at 0 h and 24 h and the percent change in migration was calculated by dividing the difference in wound area of treatment by the difference in wound area of the control.

[5] = system: HEK293T cells; test: MTT viability assay; format: cell-based, human; conditions: drug doses 1 to 100 µM, 16 h, normalized to 1% DMSO
Procedure: Cells were seeded into duplicate wells of a 96 well plate at a density of 2 × 10^4 cells per well and allowed to recover for 24 h. Cells were then treated with drug or DMSO at the indicated concentrations for 16 h. Following drug treatment, 10 μL of 5 mg/ml MTT (Sigma, M5655) was added to each well and cells were incubated for 4 h. Finally, media were removed, and the dye was solubilized in 100 μL of 0.1 M HCl in isopropanol. Absorbance was measured at 570 nm and 690 nm with final absorbance measurements as 570–690 nm.

[6] = compared to DMSO, listed as Eltrombopag

Row | IC50 ([1]; 2.5 µM protein) | IC50 ([2]; 2.5 µM protein) | IC50 ([3]; 2.5 µM protein) | Compound | % Phosphatase Activity (compared to DMSO) PRL-3 ([1]; compared to DMSO) | % Phosphatase Activity (compared to DMSO) PRL-2 ([2]; compared to DMSO) | % Phosphatase Activity (compared to DMSO) PRL-1 ([3]; compared to DMSO) | viability (MTT) [5] | also measured
1 | 700 ± 100 nM | 1100 ± 300 nM | 400 ± 200 nM | CC(=O)c1cc2c(o1)C(=O)c1ccccc1C2=O [Napabucasin, reference compound] | 10% | 26% | 16% | decreased viability | cellular migration in PRL-3 overexpressing cells [4]: less significant effects on the migration of PRL-3 expressing cells
2 | 13000 ± 400 nM | 16000 ± 2000 nM | 20000 ± 3000 nM | COc1cc(C(=O)O)ccc1NC(=O)[C@@H]1N[C@@H](CC(C)(C)C)[C@](C#N)(c2ccc(Cl)cc2F)[C@H]1c1cccc(Cl)c1F [Idasanutlin, reference compound] | – | – | – | decreased viability | cellular migration in PRL-3 overexpressing cells [4]: less significant effects on the migration of PRL-3 expressing cells
3 | – | – | – | Vitamin B12 [reference compound] | – | – | – | no effect on the viability | % Phosphatase Activity (compared to DMSO) PRL-3 ([1]; activity compared to DMSO): -2%; IC50 ([1]; […] protein): 900 ± 100 nM; % Phosphatase Activity (compared to DMSO) PRL-2 ([2]; activity compared to DMSO): -16%; IC50 ([2]; […] protein): 900 ± 200 nM; % Phosphatase Activity (compared to DMSO) PRL-1 ([3]; activity compared to DMSO): 2.68%; IC50 ([3]; […] protein): 700 ± 200 nM
4 | – | – | – | CC1(C)S[C@@H]2[C@H](NC(=O)[C@H](NC(=O)N3CCNC3=O)c3ccccc3)C(=O)N2[C@H]1C(=O)O [Azlocillin sodium salt] | 85% | 112% | 100% | – | –
5 | – | – | – | C#C[C@]1(O)CC[C@H]2[C@@H]3CCC4=CCCC[C@@H]4[C@H]3C(=C)C[C@@]21CC [Desogestrel] | 84% | 109% | 104% | – | –
6 | – | – | – | OC[C@@H](O)[C@@H](O)[C@H](O)[C@H](O)CO [D-Mannitol] | 104% | 101% | 93% | – | –
7 | – | – | – | CN(Cc1ccc(C(C)(C)C)cc1)Cc1cccc2ccccc12 [Butenafine HCl] | 88% | 112% | 117% | – | –
8 | – | – | – | CNC(=O)c1ccc(N2C(=S)N(c3ccc(C#N)c(C(F)(F)F)c3)C(=O)C2(C)C)cc1F [Enzalutamide (MDV3100)] | 71% | 89% | 90% | – | –
9 | – | – | – | Cl.N=C(N)NCCC[C@H](N)C(=O)O [L-Arginine HCl (L-Arg)] | 104% | 91% | 82% | – | –
10 | 26000 ± 11000 nM | > 100000 nM | 56000 ± 10000 nM | CC1=NN(c2ccc(C)c(C)c2)C(=O)/C1=N\Nc1cccc(-c2cccc(C(=O)O)c2)c1O [Eltromobag, reference compound] | – | – | – | – | % Phosphatase Activity (compared to DMSO) PRL-3 [1, 6]: 66%; % Phosphatase Activity (compared to DMSO) PRL-2 [2, 6]: 68%; % Phosphatase Activity (compared to DMSO) PRL-1 [3, 6]: 57%
11 | – | – | – | C[N+]1(C)CCCC(OC(=O)C(O)(c2ccccc2)c2ccccc2)C1 (centres unmarked) [Mepenzolate Bromide] | 80% | 93% | 93% | – | –
12 | – | – | – | O=C1NCC2(CCN(CCc3ccccc3)CC2)O1 [Fenspiride HCl] | 104% | 101% | 90% | – | –

Row | Compound | IC50 ([1]; 2.5 µM protein) | IC50 ([2]; 2.5 µM protein) | IC50 ([3]; 2.5 µM protein) | % Phosphatase Activity (compared to DMSO) PRL-3 ([1]; compared to DMSO) | % Phosphatase Activity (compared to DMSO) PRL-2 ([2]; compared to DMSO) | % Phosphatase Activity (compared to DMSO) PRL-1 ([3]; compared to DMSO) | viability (MTT) [5] | also measured
13 | Cc1cc(C(C#N)c2ccc(Cl)cc2)c(Cl)cc1NC(=O)c1cc(I)cc(I)c1O (centres unmarked) [Closantel, reference compound] | 11000 ± 500 nM | 14000 ± 5000 nM | 17000 ± 3000 nM | 40% | 17% | 16% | increased MTT absorbance | –
14 | COCCn1c2c([n+](Cc3cnccn3)c1C)C(=O)c1ccccc1C2=O [YM155, reference compound] | 300 ± 100 nM | 700 ± 100 nM | 300 ± 100 nM | – | – | – | decreased viability | cellular migration in PRL-3 overexpressing cells [4]: less significant effects on the migration of PRL-3 expressing cells
